Laboratory results reported in US11351178B2, “Selective HDAC6 inhibitors” (ITALFARMACO S.P.A., priority 2017, dated 2022).
Read-outs that look alike come from different tables or passages of the source.

Tests used:
[1] = Stability to Phase I metabolism in rat S9 liver fraction; format: in vitro ADME; conditions: after 90 min, 37° C.
In short: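 Compounds were incubated with rat or human liver S9 fraction at 37 °C for up to 90 min. Reactions were quenched on ice with acidified acetonitrile and analysed by HPLC-UV or LC-MS/MS. Percent remaining versus time zero and intrinsic clearance were calculated.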

[2] = Stability in human plasma; format: in vitro ADME; conditions: after 4 hours, 37° C.
Description: In order to evaluate the stability to circulating enzymes, test compounds were incubated in human and rat plasma at 37° C. in a thermostated oscillating bath. Each test compound was incubated at μM (50 μM when the samples were analysed by UV/HPLC, 1 or 2 μM when the samples were analysed by LC-MS/MS) concentration for 0, 15, 30 min and 1, 2 and 4 hours. The reaction was stopped placing tubes on ice bath and adding acidified acetonitrile. After centrifugation for 10 minutes at 14000 rpm, an aliquot of the supernatant was diluted with water, filtered with 0.45 μm syringe filters and injected in HPLC-UV or in LC-MS/MS. The percentages of amount remaining at the various times of incubation with respect to initial amount were calculated. The half-life in plasma was also calculated.

Stability in rat plasma = format: in vitro ADME; conditions: after 4 hours, 37° C.
In short: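 Compounds incubated at 37° C in rat or human plasma at 50 μM (UV/HPLC) or 1 or 2 μM (LC-MS/MS) for 0–4 h. Reaction stopped with acidified acetonitrile on ice; percent remaining versus initial amount and plasma half-life calculated.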

[3] = Stability to Phase I metabolism in human S9 liver fraction; format: in vitro ADME
Description: Test compounds were incubated in rat and human liver S9 fraction at 37° C. up to 90 minutes in order to evaluate their stability to Phase I metabolism by hepatic enzymes. […] The reaction was stopped placing samples on ice bath and adding acidified acetonitrile. After centrifugation (10 minutes at 14000 rpm) an aliquot of the supernatant was diluted water, filtered with 0.45 μm regenerated cellulose syringe filters and injected in HPLC-UV or in LC-MS/MS. The percentages of the amount remaining at the various incubation times with respect to the initial amount were calculated. The intrinsic clearance was also calculated.

recombinant human HDAC6 = biological target: T1, recombinant human HDAC6 (Homo sapiens, UniProt Q9UBN7); test: Enzymatic screening on recombinant human HDAC6; format: biochemical; conditions: Table 2
T1 sequence (Q9UBN7 1-1215): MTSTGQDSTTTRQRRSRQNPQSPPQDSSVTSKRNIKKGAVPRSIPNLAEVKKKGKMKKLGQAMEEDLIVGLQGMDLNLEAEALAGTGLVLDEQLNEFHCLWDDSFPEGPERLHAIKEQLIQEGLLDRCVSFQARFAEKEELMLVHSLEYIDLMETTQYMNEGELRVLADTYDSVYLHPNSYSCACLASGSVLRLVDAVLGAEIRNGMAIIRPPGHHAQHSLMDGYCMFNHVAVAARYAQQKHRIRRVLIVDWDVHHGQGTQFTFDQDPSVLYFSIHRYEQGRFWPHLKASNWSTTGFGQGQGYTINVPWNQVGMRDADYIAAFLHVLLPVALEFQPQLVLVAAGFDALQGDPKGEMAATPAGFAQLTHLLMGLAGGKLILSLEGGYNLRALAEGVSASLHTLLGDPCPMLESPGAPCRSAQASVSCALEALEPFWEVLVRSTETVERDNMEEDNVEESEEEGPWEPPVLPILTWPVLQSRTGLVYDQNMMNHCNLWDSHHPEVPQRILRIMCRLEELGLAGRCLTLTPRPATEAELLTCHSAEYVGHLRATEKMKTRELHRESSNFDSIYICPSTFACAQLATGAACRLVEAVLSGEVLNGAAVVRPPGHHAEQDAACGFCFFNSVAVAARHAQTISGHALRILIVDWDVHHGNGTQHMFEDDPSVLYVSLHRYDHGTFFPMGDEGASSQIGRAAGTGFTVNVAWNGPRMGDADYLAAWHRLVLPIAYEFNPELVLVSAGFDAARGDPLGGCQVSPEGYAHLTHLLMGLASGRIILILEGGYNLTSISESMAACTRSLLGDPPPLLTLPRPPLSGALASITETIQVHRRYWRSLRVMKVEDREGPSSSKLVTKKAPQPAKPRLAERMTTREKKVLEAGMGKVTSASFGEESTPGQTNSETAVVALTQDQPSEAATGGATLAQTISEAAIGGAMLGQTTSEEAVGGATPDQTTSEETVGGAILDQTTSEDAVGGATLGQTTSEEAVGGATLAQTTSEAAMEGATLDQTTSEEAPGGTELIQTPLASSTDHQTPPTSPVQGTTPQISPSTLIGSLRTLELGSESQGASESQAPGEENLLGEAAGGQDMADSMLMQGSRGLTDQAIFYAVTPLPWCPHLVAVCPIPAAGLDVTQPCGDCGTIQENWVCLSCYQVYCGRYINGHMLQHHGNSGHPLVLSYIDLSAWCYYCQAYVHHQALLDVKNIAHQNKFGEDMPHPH
In short: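 Substrates were Fluor de Lys, Fluor de Lys-Green or trifluoroacetyl-L-lysine, in 25 mM Tris-HCl pH 8, 130 mM NaCl, 0.05% Tween-20, 10% glycerol. They were added after isoform-dependent preincubation of recombinant human enzyme with compound at 30 °C, and the reaction also ran at 30 °C.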

[4] = test system: B 697 promyelocytic cell line; test: Cytotoxicity on 697 cell line (CellTiter 96); format: cell-based; conditions: 72 hours incubation, read-out: 697 TOXICITY
In short: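 Cells seeded (2×10^4/well for 697, 5×10^5/well for PBMCs); compounds added after 24 h at 1–10000 nM (697) or 1.5–10000 nM (PBMCs) and incubated 72 h. Viability read by CellTiter 96 Aqueous One tetrazolium assay of mitochondrial function.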

[5] = test system: peripheral blood mononuclear cells (PBMCs); test: Cytotoxicity on PBMCs (CellTiter 96); format: cell-based; conditions: PBMC, 72 h; read-out: PBMC TOXICITY (72 h)
Description: Cytotoxic activity was evaluated on B 697 […] cell line for all synthesized compounds and on peripheral blood mononuclear cells (PBMCs) for compounds showing a good potency/selectivity profile.
Cells were seeded in plate (2×10^4 cells per well for 697, 5×10^5 cells per well for PBMCs). The test compounds (concentrations from 1.5 nM to 10000 nM for PBMCs and from 1 nM to 10000 nM for 697) were added after 24 hours and incubated 72 hours. The molecules cytotoxic activity was evaluated using CellTiter 96© Aqueous One Solution Cell Proliferation Assay (Promega), which measures the mitochondria function, following the manufacturer's instructions.

[6] = human liver S9 fraction, after 90 min, 37° C.

| SMILES | residual percentage in rat S9 fraction [1] [%] | residual percentage in human plasma [2] [%] | residual percentage in rat plasma (Stability in rat plasma) [%] | residual percentage in human S9 fraction ([3]; human, 90 min, pH 7.4) [%] | IC50 (recombinant human HDAC6; read-out: HDAC6 IC50) [nM] | IC50 [4] [nM] | IC50 [5] [nM] | residual percentage in human S9 fraction [3, 6] [%] | IC50 (recombinant human HDAC6; HDAC6 IC50 (nM)) [nM] |
| --- | --- | --- | --- | --- | --- | --- | --- | --- | --- |
| CN(C)S(=O)(=O)c1cccc(-c2nnc(Cc3ccc(C(=O)NO)cc3)o2)c1 [comp. 3, 4-((5-(3-(N,N-dimethylsulfamoyl)phenyl)-1,3,4-oxadiazol-2-yl)methyl)-N-hydroxybenzamide] | 66 | 100 | 79 | 93 | 11 | 2880 | 735 | – | – |
| O=C(NO)c1cc(F)c(Cn2nnc(-c3ncccn3)n2)c(F)c1 [comp. 7] | 96 | 93 | 77 | – | – | 4190 | 10000 | 89 | – |
| Cn1c(Sc2c(F)cc(C(=O)NO)cc2F)nnc1-c1ccccn1 [comp. 14, 3,5-difluoro-N-hydroxy-4-((4-methyl-5-(pyridin-2-yl)-4H-1,2,4-triazol-3-yl)thio)benzamide] | 88 | 77 | 38 | 87 | 8 | 3940 | > 10000 | – | – |
| O=C(NO)c1ccc(Cn2nnnc2-c2ccccn2)cc1 [comp. 20, N-hydroxy-4-((5-(pyridin-2-yl)-1H-tetrazol-1-yl)methyl)benzamide] | 88 | 94.3 | 98.5 | 101.7 | 4 | 1120 | 2000 | – | – |
| Cc1cc(-c2nnc(Sc3c(F)cc(C(=O)NO)cc3F)n2C)nn1C [comp. 100, 4-[[5-(1,5-dimethylpyrazol-3-yl)-4-methyl-1,2,4-triazol-3-yl]sulfanyl]-3,5-difluoro-benzenecarbohydroxamic acid] | 30 | 92 | 80 | – | – | 7090 | 10000 | 76 | 7 |
| Cn1c(Sc2c(F)cc(C(=O)NO)cc2F)nnc1-c1coc(CN2CCOCC2)c1 [comp. 203, 3,5-difluoro-4-[[4-methyl-5-[5-(morpholinomethyl)-3-furyl]-1,2,4-triazol-3-yl]sulfanyl]benzenecarbohydroxamic acid] | 58 | 95 | 94 | 74 | 14 | 15200 | > 10000 | – | – |
| Cn1c(Sc2c(F)cc(C(=O)NO)cc2F)nnc1-c1ccc(CCN2CCCC2)nc1 [comp. 210, 3,5-difluoro-4-[[4-methyl-5-[6-(2-pyrrolidin-1-ylethyl)-3-pyridyl]-1,2,4-triazol-3-yl]sulfanyl]benzenecarbohydroxamic acid] | 71 | 79 | 84 | 80 | 7 | 10400 | > 10000 | – | – |
| CC1(C)CC(=O)c2c(S(C)(=O)=O)sc(-c3nnn(Cc4ccc(C(=O)NO)cc4)n3)c2C1 [compound 74] | 61 | 100 | 94 | 84 | 17 | 2280 | 2000 | – | – |
| CN(C)S(=O)(=O)c1ccc(F)c(-c2nnc(Sc3ccc(C(=O)NO)cc3)n2C)c1 [compound 76] | 76 | 96 | 98 | 77 | 28 | > 10000 | > 10000 | – | – |
